Measured values reported in patent publication US20110166136A1, “Calcium Ion Channel Modulators & Uses Thereof” (LECTUS THERAPEUTICS LIMITED, priority 2008, published 2011).

What was measured:
N-type/Cav2.2 channels = target: T1, N-type/Cav2.2 channels (Homo sapiens, UniProt Q00975); assay: Whole-cell patch-clamp recording of barium currents carried by calcium channels in primary dorsal root ganglion neurons; type: cell-based; conditions: 0.5 Hz stimulation, 100-ms steps to 0 mV from -70 mV, DRG neurons with Cm <40 pf
T1 construct: Primary dorsal root ganglion neurons were isolated using standard techniques; endogenous in cells
T1 sequence (Q00975 whole entry): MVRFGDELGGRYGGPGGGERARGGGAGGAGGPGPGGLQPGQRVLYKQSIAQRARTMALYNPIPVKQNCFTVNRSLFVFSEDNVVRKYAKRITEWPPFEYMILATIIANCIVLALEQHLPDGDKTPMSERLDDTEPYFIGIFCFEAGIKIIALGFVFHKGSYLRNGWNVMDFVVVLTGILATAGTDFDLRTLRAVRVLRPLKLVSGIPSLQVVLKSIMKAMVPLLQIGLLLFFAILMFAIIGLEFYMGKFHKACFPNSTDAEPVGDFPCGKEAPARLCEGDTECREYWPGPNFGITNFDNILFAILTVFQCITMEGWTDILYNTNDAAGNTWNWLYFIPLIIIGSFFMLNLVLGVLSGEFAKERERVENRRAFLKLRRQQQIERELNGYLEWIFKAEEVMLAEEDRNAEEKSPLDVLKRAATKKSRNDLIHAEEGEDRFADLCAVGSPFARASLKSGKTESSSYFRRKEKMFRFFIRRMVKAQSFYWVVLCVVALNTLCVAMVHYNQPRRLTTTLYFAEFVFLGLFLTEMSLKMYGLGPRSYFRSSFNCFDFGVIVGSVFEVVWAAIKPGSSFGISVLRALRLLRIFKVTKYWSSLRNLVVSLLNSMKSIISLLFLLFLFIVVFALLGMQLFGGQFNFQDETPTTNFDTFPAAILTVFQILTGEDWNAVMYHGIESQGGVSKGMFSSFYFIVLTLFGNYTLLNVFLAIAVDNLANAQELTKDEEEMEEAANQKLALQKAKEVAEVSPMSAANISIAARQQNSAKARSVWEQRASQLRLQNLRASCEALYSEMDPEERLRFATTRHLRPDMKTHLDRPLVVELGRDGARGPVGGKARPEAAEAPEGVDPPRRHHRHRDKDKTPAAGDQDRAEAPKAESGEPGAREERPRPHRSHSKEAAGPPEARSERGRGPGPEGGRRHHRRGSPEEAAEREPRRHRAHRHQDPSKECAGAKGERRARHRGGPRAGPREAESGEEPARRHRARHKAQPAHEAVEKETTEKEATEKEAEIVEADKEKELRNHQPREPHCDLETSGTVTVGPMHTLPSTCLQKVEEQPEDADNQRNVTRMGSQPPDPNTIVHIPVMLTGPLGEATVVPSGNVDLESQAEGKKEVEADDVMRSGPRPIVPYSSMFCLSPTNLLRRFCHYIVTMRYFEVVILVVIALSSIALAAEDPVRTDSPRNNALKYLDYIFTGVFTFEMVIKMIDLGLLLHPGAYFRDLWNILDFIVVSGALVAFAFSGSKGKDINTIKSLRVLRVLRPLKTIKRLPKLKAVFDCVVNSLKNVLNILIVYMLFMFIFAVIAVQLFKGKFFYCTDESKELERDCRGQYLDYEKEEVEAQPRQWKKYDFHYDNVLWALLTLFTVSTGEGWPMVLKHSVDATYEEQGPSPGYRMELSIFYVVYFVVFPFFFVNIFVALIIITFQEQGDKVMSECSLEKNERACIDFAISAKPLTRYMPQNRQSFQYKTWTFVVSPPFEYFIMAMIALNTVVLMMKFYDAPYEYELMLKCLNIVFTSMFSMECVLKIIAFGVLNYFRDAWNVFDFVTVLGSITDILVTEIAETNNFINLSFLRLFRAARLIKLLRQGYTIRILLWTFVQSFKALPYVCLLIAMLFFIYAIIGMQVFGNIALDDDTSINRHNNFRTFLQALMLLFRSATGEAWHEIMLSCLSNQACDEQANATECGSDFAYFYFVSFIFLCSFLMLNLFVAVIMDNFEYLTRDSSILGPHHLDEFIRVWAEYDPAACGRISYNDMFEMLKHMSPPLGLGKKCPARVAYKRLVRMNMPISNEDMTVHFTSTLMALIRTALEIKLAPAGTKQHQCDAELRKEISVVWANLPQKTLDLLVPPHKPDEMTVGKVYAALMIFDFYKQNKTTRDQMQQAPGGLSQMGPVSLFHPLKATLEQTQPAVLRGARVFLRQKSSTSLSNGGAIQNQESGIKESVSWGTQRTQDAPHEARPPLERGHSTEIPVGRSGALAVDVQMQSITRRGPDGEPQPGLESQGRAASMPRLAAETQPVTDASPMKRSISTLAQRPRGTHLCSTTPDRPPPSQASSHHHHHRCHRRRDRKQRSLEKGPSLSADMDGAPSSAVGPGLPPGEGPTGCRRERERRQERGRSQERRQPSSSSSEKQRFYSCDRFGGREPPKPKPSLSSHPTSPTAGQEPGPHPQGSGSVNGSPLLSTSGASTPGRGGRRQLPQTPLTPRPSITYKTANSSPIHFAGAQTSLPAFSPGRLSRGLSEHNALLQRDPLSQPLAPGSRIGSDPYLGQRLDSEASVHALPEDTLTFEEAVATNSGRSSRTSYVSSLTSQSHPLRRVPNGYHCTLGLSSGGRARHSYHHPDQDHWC
T1 sequence (P54289 25-956 partner limits assumed): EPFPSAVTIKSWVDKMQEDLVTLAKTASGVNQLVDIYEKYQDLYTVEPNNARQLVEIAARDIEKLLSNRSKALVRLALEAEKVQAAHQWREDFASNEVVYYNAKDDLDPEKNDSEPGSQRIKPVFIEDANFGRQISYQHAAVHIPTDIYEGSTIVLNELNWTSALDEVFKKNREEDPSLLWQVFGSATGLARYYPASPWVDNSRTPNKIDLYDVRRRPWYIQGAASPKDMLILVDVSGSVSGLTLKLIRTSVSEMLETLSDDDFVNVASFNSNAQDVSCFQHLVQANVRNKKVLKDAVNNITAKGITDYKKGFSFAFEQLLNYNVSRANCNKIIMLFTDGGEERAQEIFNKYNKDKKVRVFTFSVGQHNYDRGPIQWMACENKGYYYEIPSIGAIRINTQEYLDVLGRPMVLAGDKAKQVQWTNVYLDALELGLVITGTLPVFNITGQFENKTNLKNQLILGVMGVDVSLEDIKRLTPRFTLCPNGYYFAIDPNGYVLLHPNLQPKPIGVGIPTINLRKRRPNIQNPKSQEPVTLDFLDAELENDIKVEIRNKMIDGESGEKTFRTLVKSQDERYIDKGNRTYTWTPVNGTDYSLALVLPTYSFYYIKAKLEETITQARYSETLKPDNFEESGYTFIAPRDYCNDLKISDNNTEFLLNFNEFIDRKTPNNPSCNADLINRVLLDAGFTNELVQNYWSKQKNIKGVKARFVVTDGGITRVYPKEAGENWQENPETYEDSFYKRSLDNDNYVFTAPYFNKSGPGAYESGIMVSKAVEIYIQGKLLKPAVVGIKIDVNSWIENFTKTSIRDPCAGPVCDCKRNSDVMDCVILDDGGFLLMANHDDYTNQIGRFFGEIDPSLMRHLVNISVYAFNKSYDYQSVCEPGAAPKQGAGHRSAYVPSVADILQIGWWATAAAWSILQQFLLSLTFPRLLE
T1 sequence (P54289 957-1103 partner limits assumed): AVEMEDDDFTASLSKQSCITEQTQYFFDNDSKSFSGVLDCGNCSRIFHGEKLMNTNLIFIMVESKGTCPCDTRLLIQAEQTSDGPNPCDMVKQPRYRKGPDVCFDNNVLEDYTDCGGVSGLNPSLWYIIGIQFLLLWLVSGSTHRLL
Description: Primary dorsal root ganglion neurons were isolated using standard techniques and placed in Ca^2+/Mg^2+ free phosphate-buffered saline (PBS). Hemisection of the spinal column and cord was performed and the ganglia were uncovered by gently lifting the spinal cord. They were placed in a dissociation solution (PBS) containing 1 mg/ml Collagenase (type XI) and trypsin (type II-S). Ganglia were incubated in the dissociation solution for 20 minutes at room temperature, followed by 20 minutes at 37° C. Ganglia were washed in culture medium, Dulbecco's Minimum essential medium (DMEM), supplemented with fetal calf serum (10%, Gibco), penicillin/strepromycin and glutamine (Glutamax, Gibco). Cells were dispersed by trituration and plated on poly-L-lysine-coated 35-mm dishes (BD Bioscience). Cells were kept in culture in a humidified atmosphere (37° C., 5% CO2) for up to 4 days for electrophysiological recordings. Unless otherwise noted, all reagents were purchased from Sigma-Aldrich.
Barium currents carried by calcium channels were recorded using the whole-cell configuration of the patch-clamp technique. All experiments were carried out at room temperature. Cells were bathed in an external solution containing, in mM: TEA-CI, 140; BaCl2, 5; MgCl2, 1; HEPES, 10; pH 7.3 adjusted with TEA-OH. Ba^2+ was used as a charge carrier to prevent the run-down caused by Ca^2+-activated inactivation of Ca^2+ channels. […] Electrophysiological recordings were generated and acquired with a patch-clamp amplifier (Axopatch 200B, or Multiclamp 7; Molecular devices) connected to a personal computer. Online and offline analysis was carried out using the pClamp software suite (v.9, Molecular Devices). Compounds were all prepared from 100 mM stocks in 100% dimethyl sulfoxide (DMSO) and further diluted in external solution to achieve the desired final concentration. Final DMSO concentration was always <0.1%. For the assessment of activity of the compounds, only cells with a membrane capacitance (Cm)<40 pf were used, as the Ca2+ current in these cells is carried mostly through N-type/Cav2.2 channels. Cell membrane potential was held at −70 mV and currents were elicited by a series of 100-ms steps to 0 mV, at a frequency of 0.1 Hz. After the establishment of a steady baseline current, the compound was applied to the bath. When the block induced by the compound reached a steady level, the frequency was then increased to 0.5 Hz, to assess use-dependence. After stabilization of the high frequency block, step depolarizations were stopped and cell membrane potential was kept at −70 mV for 100-120 s, after which 0.1 Hz stimulation (100 ms, 0 mV) was elicited, to assess recovery of the block. ω-conotoxin GVIA (100 nM; Alomone labs) was added at the end of the experiment to quantify the remaining N-type current. Selectivity of the compounds over non-N-type currents was studied using similar stimulation protocols, in a bath solution containing ω-conotoxin GVIA (100 nM).

[1] = test system: α2-δ voltage-gated calcium channel; conditions: compared with gabapentin; cited from earlier work
[2] = DRG neuron, compound concentration 1 uM

O=C(O)C(=O)c1c[nH]c2cc(F)ccc12 [Compound 20, 2-(6-fluoro-1H-indol-3-yl)-2-oxoacetic acid]
inhibition at 1 µM (N-type/Cav2.2 channels; [2]): 55%

COc1ccc2c(C(=O)C(=O)O)c[nH]c2c1 [Compound 31, 2-(6-methoxy-1H-indol-3-yl)-2-oxoacetic acid]
inhibition at 0.1 µM (N-type/Cav2.2 channels; DRG neuron, compound concentration 0.1 uM): 36%

COc1ccc2c(C(=O)C(=O)N3CCOCC3)c[nH]c2c1 [Compound 57, 1-(6-methoxy-1H-indol-3-yl)-2-morpholinoethane-1,2-dione]
inhibition at 1 µM (N-type/Cav2.2 channels; [2]): 44%

COc1ccc2c(C(=O)C(=O)N3CCN(C)CC3)c[nH]c2c1 [Compound 77, 1-(6-methoxy-1H-indol-3-yl)-2-(4-methylpiperazin-1-yl)ethane-1,2-dione]
inhibition at 1 µM (N-type/Cav2.2 channels; [2]): 55%

CC(C)C[C@H](CN)CC(=O)O [Pregabalin, pregabalin]
potency in binding affinity to the α2-δ voltage-gated calcium channel relative to gabapentin [1]: six-times more potent than gabapentin

ethyl 2-(6-methoxy-1H-indol-3-yl)-2-oxoacetate [Compound 40]
% Inhibition at 0.5 Hz (N-type/Cav2.2 channels; compound concentration 1 uM): 57%
